# In patent US9493446B2, “Orexin receptor antagonists which are [ortho bi-(hetero-)aryl]-[2-(meta bi-(hetero-)aryl)-pyrrolidin-1-yl]-methanone derivatives” (Actelion Pharmaceuticals Ltd, priority 2012, dated 2016):
# Like-named read-outs stand apart in the source and are kept apart here.
# Assays:
# orexin-1 = orexin-1 (Homo sapiens (Human), UniProt O43613); assay: Intracellular calcium measurement (FLIPR), CHO cells expressing human orexin-1 receptor, 3 nM orexin-A; assay type: cell-based; details: CHO cells expressing human orexin-1 receptor, FLIPR, 3 nM orexin-A; geometric mean if determined several times; read-out: IC50 OX1
# Chain of orexin-1 (O43613 whole entry): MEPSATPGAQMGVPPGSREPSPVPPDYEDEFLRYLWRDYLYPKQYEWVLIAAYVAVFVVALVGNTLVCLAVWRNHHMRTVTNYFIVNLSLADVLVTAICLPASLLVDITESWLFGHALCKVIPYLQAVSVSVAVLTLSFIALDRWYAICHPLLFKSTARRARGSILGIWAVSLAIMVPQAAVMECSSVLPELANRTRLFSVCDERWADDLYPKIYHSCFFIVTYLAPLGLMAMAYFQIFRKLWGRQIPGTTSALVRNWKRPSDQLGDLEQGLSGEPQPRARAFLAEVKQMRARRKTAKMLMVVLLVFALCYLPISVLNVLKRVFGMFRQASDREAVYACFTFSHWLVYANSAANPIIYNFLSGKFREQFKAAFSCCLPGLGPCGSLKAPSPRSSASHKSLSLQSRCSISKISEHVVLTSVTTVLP
# Summary of the method: (§1)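 HBSS buffer with 0.1% BSA, NaHCO3 and 20 mM HEPES carries both compounds and agonist. Dye: fluo-4 AM (3 μM) with 5 mM probenecid. Compound exposure 120 min; peak signal scored against uninhibited orexin-A response.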
# human orexin-2 receptor = human orexin-2 receptor (Homo sapiens (Human), UniProt O43614); assay: Intracellular calcium measurement (FLIPR), CHO cells expressing human orexin-2 receptor, 3 nM orexin-A; assay type: cell-based; details: read-out: IC50 OX2
# Chain of human orexin-2 receptor (O43614 whole entry): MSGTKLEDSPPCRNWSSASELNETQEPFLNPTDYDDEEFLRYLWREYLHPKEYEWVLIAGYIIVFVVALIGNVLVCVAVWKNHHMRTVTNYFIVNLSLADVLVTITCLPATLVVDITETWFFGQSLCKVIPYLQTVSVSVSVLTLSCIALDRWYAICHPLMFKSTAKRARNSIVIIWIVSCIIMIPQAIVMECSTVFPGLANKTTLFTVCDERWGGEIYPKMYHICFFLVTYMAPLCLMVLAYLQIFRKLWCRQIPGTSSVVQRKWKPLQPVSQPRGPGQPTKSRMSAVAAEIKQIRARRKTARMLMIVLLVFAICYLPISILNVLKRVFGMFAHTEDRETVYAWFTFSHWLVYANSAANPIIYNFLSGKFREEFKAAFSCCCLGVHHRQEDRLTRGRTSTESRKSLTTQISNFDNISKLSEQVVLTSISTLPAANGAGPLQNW
# Summary of the method: as §1
# [1] = CHO cells expressing human orexin-2 receptor, FLIPR, 3 nM orexin-A, geometric mean if determined several times
Structure (SMILES),IC50 (orexin-1) [nM],IC50 (human orexin-2 receptor; [1]) [nM],IC50 (human orexin-2 receptor) [nM]
"Cc1ccc(C(=O)N2CCC[C@H]2c2nc(-c3ccccc3OC(F)(F)F)no2)c(-n2nccn2)c1 [compound 147, (4-Methyl-2-[1,2,3]triazol-2-yl-phenyl)-{(S)-2-[3-(2-trifluoromethoxy-phenyl)-[1,2,4]oxadiazol-5-yl]-pyrrolidin-1-yl}-methanone]",31,15,
"O=C(c1cc(C(F)(F)F)ccc1-n1nccn1)N1CCC[C@H]1c1nc(-c2ccccc2OC(F)(F)F)no1 [compound 148, (2-[1,2,3]Triazol-2-yl-5-trifluoromethyl-phenyl)-{(S)-2-[3-(2-trifluoromethoxy-phenyl)-[1,2,4]oxadiazol-5-yl]-pyrrolidin-1-yl}-methanone]",241,285,
"Cc1cccc(-n2nccn2)c1C(=O)N1CCC[C@H]1c1nc(-c2ccccc2OC(F)(F)F)no1 [compound 149, (2-Methyl-6-[1,2,3]triazol-2-yl-phenyl)-{(S)-2-[3-(2-trifluoromethoxy-phenyl)-[1,2,4]oxadiazol-5-yl]-pyrrolidin-1-yl}-methanone]",184,85,
"O=C(c1cc(OC(F)(F)F)ccc1-n1nccn1)N1CCC[C@H]1c1nc(-c2ccccc2OC(F)(F)F)no1 [compound 150, (2-[1,2,3]Triazol-2-yl-5-trifluoromethoxy-phenyl)-{(S)-2-[3-(2-trifluoromethoxy-phenyl)-[1,2,4]oxadiazol-5-yl]-pyrrolidin-1-yl}-methanone]",457,341,
"COc1ccc(-n2nccn2)c(C(=O)N2CCC[C@H]2c2nc(-c3ccccc3OC(F)(F)F)no2)c1 [compound 151, (5-Methoxy-2-[1,2,3]triazol-2-yl-phenyl)-{(S)-2-[3-(2-trifluoromethoxy-phenyl)-[1,2,4]oxadiazol-5-yl]-pyrrolidin-1-yl}-methanone]",27,27,
"COc1ccc(-c2ccccc2)c(C(=O)N2CCC[C@H]2c2nc(-c3ccccc3OC(F)(F)F)no2)c1 [compound 152, (4-Methoxy-biphenyl-2-yl)-{(S)-2-[3-(2-trifluoromethoxy-phenyl)-[1,2,4]oxadiazol-5-yl]-pyrrolidin-1-yl}-methanone]",9,35,
"O=C(c1[nH]cnc1-c1ccccc1)N1CCC[C@H]1c1nc(-c2ccccc2OC(F)(F)F)no1 [compound 153, (5-Phenyl-3H-imidazol-4-yl)-{(S)-2-[3-(2-trifluoromethoxy-phenyl)-[1,2,4]oxadiazol-5-yl]-pyrrolidin-1-yl}-methanone]",781,460,
"O=C(c1cc(F)ccc1-n1nccn1)N1CCC[C@H]1c1nc(-c2ccccc2OC(F)(F)F)no1 [compound 155, (5-Fluoro-2-[1,2,3]triazol-2-yl-phenyl)-{(S)-2-[3-(2-trifluoromethoxy-phenyl)-[1,2,4]oxadiazol-5-yl]-pyrrolidin-1-yl}-methanone]",174,43,
"COc1ccc(-n2cccn2)c(C(=O)N2CCC[C@H]2c2nc(-c3ccccc3OC(F)(F)F)no2)c1 [compound 157, (5-Methoxy-2-pyrazol-1-yl-phenyl)-{(S)-2-[3-(2-trifluoromethoxy-phenyl)-[1,2,4]oxadiazol-5-yl]-pyrrolidin-1-yl}-methanone]",99,73,
"Cc1ccc(-n2nccn2)c(C(=O)N2CCC[C@H]2c2nc(-c3ccccc3OC(F)(F)F)no2)n1 [compound 159, (6-Methyl-3-[1,2,3]triazol-2-yl-pyridin-2-yl)-{(S)-2-[3-(2-trifluoromethoxy-phenyl)-[1,2,4]oxadiazol-5-yl]-pyrrolidin-1-yl}-methanone]",88,71,
"Cc1ccc(-n2cccn2)c(C(=O)N2CCC[C@H]2c2nc(-c3ccccc3OC(F)(F)F)no2)n1 [compound 160, (6-Methyl-3-pyrazol-1-yl-pyridin-2-yl)-{(S)-2-[3-(2-trifluoromethoxy-phenyl)-[1,2,4]oxadiazol-5-yl]-pyrrolidin-1-yl}-methanone]",238,212,
"O=C(c1cc(F)c(F)cc1-n1nccn1)N1CCC[C@H]1c1nc(-c2ccccc2OC(F)(F)F)no1 [compound 161, (4,5-Difluoro-2-[1,2,3]triazol-2-yl-phenyl)-{(S)-2-[3-(2-trifluoromethoxy-phenyl)-[1,2,4]oxadiazol-5-yl]-pyrrolidin-1-yl}-methanone]",751,204,
"O=C(c1ccc(F)cc1-n1cccn1)N1CCC[C@H]1c1nc(-c2ccccc2OC(F)(F)F)no1 [compound 162, (4-Fluoro-2-pyrazol-1-yl-phenyl)-{(S)-2-[3-(2-trifluoromethoxy-phenyl)-[1,2,4]oxadiazol-5-yl]-pyrrolidin-1-yl}-methanone]",818,347,
"O=C(c1ccc(F)cc1-n1nccn1)N1CCC[C@H]1c1nc(-c2ccccc2OC(F)(F)F)no1 [compound 163, (4-Fluoro-2-[1,2,3]triazol-2-yl-phenyl)-{(S)-2-[3-(2-trifluoromethoxy-phenyl)-[1,2,4]oxadiazol-5-yl]-pyrrolidin-1-yl}-methanone]",495,87,
"O=C(c1cccc(F)c1-n1cccn1)N1CCC[C@H]1c1nc(-c2ccccc2OC(F)(F)F)no1 [compound 164, (3-Fluoro-2-pyrazol-1-yl-phenyl)-{(S)-2-[3-(2-trifluoromethoxy-phenyl)-[1,2,4]oxadiazol-5-yl]-pyrrolidin-1-yl}-methanone]",333,171,
"O=C(c1cccc(F)c1-n1nccn1)N1CCC[C@H]1c1nc(-c2ccccc2OC(F)(F)F)no1 [compound 165, (3-Fluoro-2-[1,2,3]triazol-2-yl-phenyl)-{(S)-2-[3-(2-trifluoromethoxy-phenyl)-[1,2,4]oxadiazol-5-yl]-pyrrolidin-1-yl}-methanone]",286,79,
"O=C(c1cc(F)ccc1-c1ccn[nH]1)N1CCC[C@H]1c1nc(-c2ccccc2OC(F)(F)F)no1 [compound 167, [5-Fluoro-2-(2H-pyrazol-3-yl)-phenyl]-{(S)-2-[3-(2-trifluoromethoxy-phenyl)-[1,2,4]oxadiazol-5-yl]-pyrrolidin-1-yl}-methanone]",114,43,
"O=C(c1cccc(F)c1-c1ccn[nH]1)N1CCC[C@H]1c1nc(-c2ccccc2OC(F)(F)F)no1 [compound 168, [3-Fluoro-2-(2H-pyrazol-3-yl)-phenyl]-{(S)-2-[3-(2-trifluoromethoxy-phenyl)-[1,2,4]oxadiazol-5-yl]-pyrrolidin-1-yl}-methanone]",27,10,
"COc1ccc(C(=O)N2CCC[C@H]2c2nc(-c3ccccc3OC(F)(F)F)no2)c(-n2nccn2)c1 [compound 169, (4-Methoxy-2-[1,2,3]triazol-2-yl-phenyl)-{(S)-2-[3-(2-trifluoromethoxy-phenyl)-[1,2,4]oxadiazol-5-yl]-pyrrolidin-1-yl}-methanone]",137,90,
"Cc1cc(C)c(-n2nccn2)c(C(=O)N2CCC[C@H]2c2nc(-c3ccccc3OC(F)(F)F)no2)c1 [compound 170, (3,5-Dimethyl-2-[1,2,3]triazol-2-yl-phenyl)-{(S)-2-[3-(2-trifluoromethoxy-phenyl)-[1,2,4]oxadiazol-5-yl]-pyrrolidin-1-yl}-methanone]",55,35,
"O=C(c1ccccc1-c1ncco1)N1CCC[C@H]1c1nc(-c2ccccc2OC(F)(F)F)no1 [compound 171, (2-Oxazol-2-yl-phenyl)-{(S)-2-[3-(2-trifluoromethoxy-phenyl)-[1,2,4]oxadiazol-5-yl]-pyrrolidin-1-yl}-methanone]",104,30,
O=C(c1ccc(Cl)cc1-n1nccn1)N1CCC[C@H]1c1nc(-c2ccccc2OC(F)(F)F)no1 [compound 172],56,,18
"O=C(c1ccc(C(F)(F)F)cc1-n1nccn1)N1CCC[C@H]1c1nc(-c2ccccc2OC(F)(F)F)no1 [compound 173, (2-[1,2,3]Triazol-2-yl-4-trifluoromethyl-phenyl)-{(S)-2-[3-(2-trifluoromethoxy-phenyl)-[1,2,4]oxadiazol-5-yl]-pyrrolidin-1-yl}-methanone]",132,116,
"COc1cc(C(=O)N2CCC[C@H]2c2nc(-c3ccccc3OC(F)(F)F)no2)c(-n2nccn2)cc1F [compound 174, (4-Fluoro-5-methoxy-2-[1,2,3]triazol-2-yl-phenyl)-{(S)-2-[3-(2-trifluoromethoxy-phenyl)-[1,2,4]oxadiazol-5-yl]-pyrrolidin-1-yl}-methanone]",174,70,
"Cc1ccc(-c2ncco2)c(C(=O)N2CCC[C@H]2c2nc(-c3ccccc3OC(F)(F)F)no2)c1 [compound 175, (5-Methyl-2-oxazol-2-yl-phenyl)-{(S)-2-[3-(2-trifluoromethoxy-phenyl)-[1,2,4]oxadiazol-5-yl]-pyrrolidin-1-yl}-methanone]",14,12,
"Cc1cc(F)cc(C(=O)N2CCC[C@H]2c2nc(-c3ccccc3OC(F)(F)F)no2)c1-n1nccn1 [compound 176, (5-Fluoro-3-methyl-2-[1,2,3]triazol-2-yl-phenyl)-{(S)-2-[3-(2-trifluoromethoxy-phenyl)-[1,2,4]oxadiazol-5-yl]-pyrrolidin-1-yl}-methanone]",258,151,
"COc1cc(C(=O)N2CCC[C@H]2c2nc(-c3ccccc3OC(F)(F)F)no2)c(-n2nccn2)cc1OC [compound 177, (4,5-Dimethoxy-2-[1,2,3]triazol-2-yl-phenyl)-{(S)-2-[3-(2-trifluoromethoxy-phenyl)-[1,2,4]oxadiazol-5-yl]-pyrrolidin-1-yl}-methanone]",126,140,
